Measured values taken from patent US20050124562A1, “Bis-quinazoline compounds for the treatment of bacterial infections” (priority 2003, published 2005).
≈ marks a conversion by molar mass, not a printed value. Counter-ions that a name gives are not always drawn. Like-named read-outs stand apart in the source and are kept apart here.

Assays:
Format in all cases: cell-based
[1] = test system: S. aureus, E. faecalis, S. pyogenes and S. pneumoniae; assay: Broth microdilution MIC (NCCLS), gram-positive strains
Method in brief: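 MICs by broth microdilution per NCCLS M-7 A-6 against ATCC strains, including ORSA and VRE; MBCs determined for selected organisms. Serum effect assessed by repeating MIC tests with human serum present.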

M. catarrhalis = assay: Broth microdilution MIC (NCCLS), M. catarrhalis; conditions: Moraxella catarrhalis, read-out: MIC range
Experimental: (§1) Representative bis-quinazolines were tested for antibacterial activity using the […] microdilution method to determine their minimum inhibitory concentrations (MICs). All compounds were tested using standard methods in accordance with NCCLS guidelines (National Committee for Clinical Laboratory Standards. 2003. Methods for dilution antimicrobial susceptibility testing for bacteria that grow aerobically. Approved Standard M-7 A-6, NCCLS, Wayne, Pa.). The bacterial strains used in the susceptibility tests were obtained from the American Type Culture Collection (ATCC) and included resistant phenotypes such as oxacillin-resistant S. aureus (ORSA) and vancomycin-resistant enterococci (VRE). The minimum bactericidal concentrations (MBCs) were determined for selected organisms. The effect of protein binding on the antibacterial activity of representative bis-quinazolines were determined by conducting MIC tests in the presence of human serum.

H. influenzae = assay: Broth microdilution MIC (NCCLS), H. influenzae; conditions: Haemophilus influenzae; some strains of H. influenzae
Experimental: as §1

[2] = test system: efflux mutants of E. coli; assay: Broth microdilution MIC (NCCLS), E. coli efflux mutants; conditions: Escherichia coli, read-out: MICs
Experimental: as §1

[3] = test system: efflux mutants of P. aeruginosa; assay: Broth microdilution MIC (NCCLS), P. aeruginosa efflux mutants; conditions: Pseudomonas aeruginosa, read-out: MICs
Experimental: as §1

[4] = range against some strains of S. aureus, E. faecalis, S. pyogenes and S. pneumoniae, read-out: MIC

Row | Compound | MIC [1, 4] [µg/mL] | MIC (M. catarrhalis; some strains of M. catarrhalis) [µg/mL] | MIC (H. influenzae) [µg/mL] | MIC [2] [µg/mL] | MIC [3] [µg/mL] | MIC [1] [µg/mL] | MIC (M. catarrhalis) [µg/mL]
1 | CCOc1cccc2c(O)nc(Nc3nc(C)c4cc(OC)c(OC)cc4n3)nc12.O=C(O)C(F)(F)F [Example 97, 2-(6,7-Dimethoxy-4-methyl-quinazolin-2-ylamino)-8-ethoxy-quinazolin-4-ol trifluoroacetate salt] | 0.06 to 16 | 2 to 64 | 16 to 32 | 16 to 64 | 64 | – | –
2 | COc1cccc2c(C)nc(Nc3nc(O)c4cc(OCCN5CCC(O)C5)ccc4n3)nc12.O=C(O)C(F)(F)F (centres unmarked) [Example 138, 6-[2-(3-Hydroxy-pyrrolidin-1-yl)-ethoxy]-2-(8-methoxy-4-methyl-quinazolin-2-ylamino)-quinazolin-4-ol trifluoroacetate salt] | 0.06 to 16 | 2 to 64 | 16 to 32 | 16 to 64 | 64 | – | –
3 | COc1cc(OC)c2nc(Nc3nc(O)c4c(OC)cccc4n3)nc(C)c2c1.O=C(O)C(F)(F)F [Example 85, 2-(6,8-Dimethoxy-4-methyl-quinazolin-2-ylamino)-5-methoxy-quinazolin-4-ol trifluoroacetate salt] | 0.06 to 16 | 2 to 64 | 16 to 32 | 16 to 64 | 64 | – | –
4 | COc1cc2nc(Nc3nc(O)c4cc(OCCN5CCOC(CO)C5)ccc4n3)nc(C)c2cc1OC.O=C(O)C(F)(F)F (centres unmarked) [Example 170, 2-(6,7-Dimethoxy-4-methyl-quinazolin-2-ylamino)-6-[2-(2-hydroxymethyl-morpholin-4-yl)-ethoxy]-quinazolin-4-ol trifluoroacetate salt] | 0.06 to 16 | 2 to 64 | 16 to 32 | 16 to 64 | 64 | – | –
5 | COc1cc2nc(Nc3nc(O)c4cc(OCCN(CCO)CCO)ccc4n3)nc(C)c2cc1OC.O=C(O)C(F)(F)F [Example 158, 6-{2-[Bis-(2-hydroxy-ethyl)-amino]-ethoxy}-2-(6,7-dimethoxy-4-methyl-quinazolin-2-ylamino)-quinazolin-4-ol trifluoroacetate salt] | 0.06 to 16 | 2 to 64 | 16 to 32 | 16 to 64 | 64 | – | –
6 | COc1cc2nc(Nc3nc(O)c4cc(OCCNC(CO)CO)ccc4n3)nc(C)c2cc1OC.O=C(O)C(F)(F)F [Example 165, 2-{2[-2-(6,7-Dimethoxy-4-methyl-quinazolin-2-ylamino)-4-hydroxy-quinazolin-6-yloxy]-ethylamino}-propane-1,3-diol trifluoroacetate salt] | 0.06 to 16 | 2 to 64 | 16 to 32 | 16 to 64 | 64 | – | –
7 | COc1ccc2nc(Nc3nc(O)c4cc(C)cc(C)c4n3)nc(C)c2c1 [Example 19, 2-(6-Methoxy-4-methyl-quinazolin-2-ylamino)-6,8-dimethyl-quinazolin-4-ol] | – | – | 16 to 32 (≈ 44.3 to 88.5 µM) | 16 to 64 (≈ 44.3 to 177 µM) | 64 (≈ 177 µM) | 0.06 to 16 (≈ 0.166 to 44.3 µM) | 2 to 64 (≈ 5.53 to 177 µM)
8 | COc1cc2nc(Nc3nc(O)c4c(OC)cccc4n3)nc(C)c2cc1OC.O=C(O)C(F)(F)F [Example 84, 2-(6,7-Dimethoxy-4-methyl-quinazolin-2-ylamino)-5-methoxy-quinazolin-4-ol trifluoroacetate salt] | 0.06 to 16 | 2 to 64 | 16 to 32 | 16 to 64 | 64 | – | –
9 | CCN(CC)CCOc1ccc2nc(Nc3nc(C)c4cc(OC)cc(OC)c4n3)nc(O)c2c1.O=C(O)C(F)(F)F [Example 144, 6-(2-Diethylamino-ethoxy)-2-(6,8-dimethoxy-4-methyl-quinazolin-2-ylamino)-quinazolin-4-ol trifluoroacetate salt] | 0.06 to 16 | 2 to 64 | 16 to 32 | 16 to 64 | 64 | – | –
10 | COc1cc2c(C)nc(Nc3nc(O)c4cccc(OC)c4n3)nc2cc1[N+](=O)[O-].O=C(O)C(F)(F)F [Example 77, 2-(6-methoxy-7-nitro-4-methyl-quinazolin-2-ylamino)-8-methoxy-quinazolin-4-ol trifluoroacetate salt] | 0.06 to 16 | 2 to 64 | 16 to 32 | 16 to 64 | 64 | – | –
11 | CCN(CC)CCOc1ccc2nc(Nc3nc(O)c4cc(N)cc(C)c4n3)nc(C)c2c1.O=C(O)C(F)(F)F [Example 125, 6-Amino-2-[6-(2-diethylamino-ethoxy)-4-methyl-quinazolin-2-ylamino]-8-methyl-quinazolin-4-ol trifluoroacetate salt] | 0.06 to 16 | 2 to 64 | 16 to 32 | 16 to 64 | 64 | – | –
12 | COc1cc2nc(Nc3nc(O)c4cc(N)cc(C)c4n3)nc(C)c2cc1OC.O=C(O)C(F)(F)F [Example 120, 6-Amino-2-(6,7-dimethoxy-4-methyl-quinazolin-2-ylamino)-8-methyl-quinazolin-4-ol trifluoroacetate salt] | 0.06 to 16 | 2 to 64 | 16 to 32 | 16 to 64 | 64 | – | –
13 | COc1cc2nc(Nc3nc(O)c4c(OC)ccc(OC)c4n3)nc(C)c2cc1OC.O=C(O)C(F)(F)F [Example 99, 2-(6,7-Dimethoxy-4-methyl-quinazolin-2-ylamino)-5,8-dimethoxy-quinazolin-4-ol trifluoroacetate salt] | 0.06 to 16 | 2 to 64 | 16 to 32 | 16 to 64 | 64 | – | –
14 | COc1cc(OC)c2nc(Nc3nc(O)c4cc(OCCN5CCC(O)C5)ccc4n3)nc(C)c2c1.O=C(O)C(F)(F)F (centres unmarked) [Example 160, 2-(6,8-Dimethoxy-4-methyl-quinazolin-2-ylamino)-6-[2-(3-hydroxy-pyrrolidin-1-yl)-ethoxy]-quinazolin-4-ol trifluoroacetate salt] | 0.06 to 16 | 2 to 64 | 16 to 32 | 16 to 64 | 64 | – | –
15 | COc1ccc2nc(Nc3nc(O)c4cc(C)cc(Br)c4n3)nc(C)c2c1 [Example 39, 8-Bromo-2-(6-methoxy-4-methyl-quinazolin-2-ylamino)-6-methyl-quinazolin-4-ol trifluoroacetate salt] | – | – | 16 to 32 | 16 to 64 | 64 | 0.06 to 16 | 2 to 64
16 | COc1cccc2c(O)nc(Nc3nc(C)c4c(OC)ccc(C)c4n3)nc12.O=C(O)C(F)(F)F [Example 91, 8-Methoxy-2-(5-methoxy-4,8-dimethyl-quinazolin-2-ylamino)-quinazolin-4-ol trifluoroacetate salt] | 0.06 to 16 | 2 to 64 | 16 to 32 | 16 to 64 | 64 | – | –
17 | Cc1nc(Nc2nc(C)c3ccc4c(c3n2)OCCO4)nc2ccc(OCCN3CCC(O)C3)cc12 (centres unmarked) [Example 12, 1-{2-[4-Methyl-2-(8-methyl-2,3-dihydro-1,4-dioxa-5,7-diaza-phenanthren-6-ylamino)-quinazolin-6-yloxy]-ethyl}-pyrrolidin-3-ol] | – | – | 16 to 32 (≈ 32.8 to 65.5 µM) | 16 to 64 (≈ 32.8 to 131 µM) | 64 (≈ 131 µM) | 0.06 to 16 (≈ 0.123 to 32.8 µM) | 2 to 64 (≈ 4.09 to 131 µM)
18 | COc1cc2nc(Nc3nc(O)c4cc(OCCN5CCC(O)C5)ccc4n3)nc(C)c2cc1OC.O=C(O)C(F)(F)F (centres unmarked) [Example 154, 2-(6,7-Dimethoxy-4-methyl-quinazolin-2-ylamino)-6-[2-(3-hydroxy-pyrrolidin-1-yl)-ethoxy]-quinazolin-4-ol trifluoroacetate salt] | 0.06 to 16 | 2 to 64 | 16 to 32 | 16 to 64 | 64 | – | –
19 | COc1cc2c(C)nc(Nc3nc(O)c4c(OC)cccc4n3)nc2cc1F.O=C(O)C(F)(F)F [Example 94, 2-(7-Fluoro-6-methoxy-4-methyl-quinazolin-2-ylamino)-5-methoxy-quinazolin-4-ol trifluoroacetate salt] | 0.06 to 16 | 2 to 64 | 16 to 32 | 16 to 64 | 64 | – | –
20 | COCCOc1ccc2nc(Nc3nc(C)c4cc(OC)c(OC)cc4n3)nc(O)c2c1.O=C(O)C(F)(F)F [Example 102, 2-(6,7-Dimethoxy-4-methyl-quinazolin-2-ylamino)-6-(2-methoxy-ethoxy)-quinazolin-4-ol trifluoroacetate salt] | 0.06 to 16 | 2 to 64 | 16 to 32 | 16 to 64 | 64 | – | –
21 | COc1cc2nc(Nc3nc(O)c4cc(OCCNCCO)ccc4n3)nc(C)c2cc1OC.O=C(O)C(F)(F)F [Example 161, 2-(6,7-Dimethoxy-4-methyl-quinazolin-2-ylamino)-6-[2-(2-hydroxy-ethylamino)-ethoxy]-quinazolin-4-ol trifluoroacetate salt] | 0.06 to 16 | 2 to 64 | 16 to 32 | 16 to 64 | 64 | – | –
22 | COc1cc2nc(Nc3nc(O)c4cc(OCCN5CCCC(O)C5)ccc4n3)nc(C)c2cc1OC.O=C(O)C(F)(F)F (centres unmarked) [Example 157, 2-(6,7-Dimethoxy-4-methyl-quinazolin-2-ylamino)-6-[2-(3-hydroxy-piperidin-1-yl)-ethoxy]-quinazolin-4-ol trifluoroacetate salt] | 0.06 to 16 | 2 to 64 | 16 to 32 | 16 to 64 | 64 | – | –
